Assay results from US12145947B2, “Pyrimidine based modulators and uses thereof” (Quanta Therapeutics, Inc., priority 2022, dated 2024).

Columns and labels:
[1] = target: T1, GST-tagged KRAS-G12D (2-169) (Homo sapiens, UniProt P01116, G12D); assay: Nucleotide exchange assay (NEA), SOS-mediated, HTRF, KRAS G12D; type: biochemical; settings: Table 4; IC50 extracted at 30 min
T1 construct: GST-tagged KRAS-G12D (2-169, Reaction Biology, MSC-11-539); purchased Reaction Biology MSC-11-539 (KRAS G12D); MSC-11-502 (SOS1cat)
T1 sequence (P01116 2-169 isoform P01116-2 G12D): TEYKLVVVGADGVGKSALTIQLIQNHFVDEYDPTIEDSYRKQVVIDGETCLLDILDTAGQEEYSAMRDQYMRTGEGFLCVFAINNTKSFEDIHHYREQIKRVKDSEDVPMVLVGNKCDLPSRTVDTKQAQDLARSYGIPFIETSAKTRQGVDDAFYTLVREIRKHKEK
Method in brief: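 GST-KRAS-G12D (2-169, 5 nM final) with Tb-anti-GST donor was preincubated with compound 1 h at RT (pH 7.3 HEPES buffer, MgCl2, DTT), then SOScat (564-1049, 20 nM) and GTP-DY-647P1 (150 nM) were added. HTRF was read at RT; % inhibition vs DMSO/no-SOS blank, 4-parameter IC50 taken at 30 min.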

[2] = test system: AGS cells (KRAS G12D), phospho-ERK; assay: pERK In Cell Western (ICW) assay (Method B), AGS cells; type: cell-based; settings: Homo sapiens, Table 4, pERK, 3 hours, read-out: ICW-AGS
Method: pERK ICW is a high throughput screening assay to evaluate the cellular potency of mutant KRAS small molecule inhibitors. KRAS mutant cell lines AGS and GP2D (KRAS^G12D) were purchased from ATCC and maintained respectively in RPMI and DMEM medium supplemented with 10% fetal bovine serum and Penicillin/Streptomycin.
Cells grown in exponential phase were trypsinized, resuspended in fresh media, and viable cells were counted using a cell counter with Trypan Blue (BioRad TC20). Cells were seeded into 384-well plate (Greiner 781091) at density of 5,000 cells/well for AGS and 10,000 cells/well for GP2D and allowed to grow overnight in a 37° C. CO2 incubator. The next day, compounds were dispensed into wells with a ½ log, 10-point serial dilution and top concentration of […] using Tecan D300e dispenser and incubated for 3 hours in a 37° C. CO2 incubator. Cells were then fixed with paraformaldehyde (Electron Microscopy Sciences, 15710, 4% final concentration) for 30 min, permeabilized with wash buffer (1×PBS+0.1% Triton X-100) for 30 min and blocked with Odyssey blocking buffer (Li—COR 927-70001) for 1 hour, all at room temperature (RT). Phospho-ERK antibody (CST 4370L) was diluted 1:500 in Odyssey blocking+0.2% Tween 20 and incubated with cells overnight at 4° C. The next day, plates were washed 5× with wash buffer, incubated with IRDye 800 CW, Goat anti-Rabbit secondary antibody (Li—COR 926-32211, 1:500) and DRAQ5 (CST 4084L, 1:5,000) diluted in Odyssey blocking+0.2% Tween 20 for 1 hour, washed 5×, and imaged on an Odyssey CLx imaging system.
For data analysis, signal intensities from 800 (phosphor-ERK) and 700 (DRAQ5) channels were extracted, and phospho-ERK signals were normalized to DRAQ5 signals for each well and percent of DMSO control values were computed. Data were then imported into Graphpad Prism to compute half-maximal inhibitory concentrations (IC50) using a 4-parameter variable slope model. Z-factor for each plate was computed from signals derived from wells treated with either DMSO or […] of Trametinib. AGS pERK ICW (Method B) IC50 (uM) values of selected compounds are depicted in Table 2 with compounds having a value 0.001 uM to 0.01 uM as ++++; >0.01 uM to 0.1 uM as +++; >0.1 uM to 1 uM as ++; 1 uM to 10 uM as + and >10 uM as NA.

[3] = test system: GP2D cells (KRAS G12D), phospho-ERK; assay: pERK In Cell Western (ICW) assay, GP2D cells; type: cell-based; settings: Table 4, 3 hours
Method in brief: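 GP2D (10,000 cells/well) and AGS (5,000 cells/well) cells were treated for 3 h at 37 °C with a 10-point, ½-log dilution series (top […]). They were then fixed and immunostained for phospho-ERK. pERK signal was normalised to DRAQ5 and expressed as % of DMSO, with IC50 from a 4-parameter fit.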

Row | SMILES | IC50 [1] [nM] | IC50 [2] [nM] | IC50 [3] [nM]
1 | CN(C)CC(F)(F)COc1nc(N2C[C@H]3CC[C@@H](C2)N3)c(C#N)c(N2CC3(CCc4sc(N)c(C#N)c43)C2)n1 [Compound 26, 2-amino-1′-[5-cyano-6-(3,8-diazabicyclo[3.2.1]octan-3-yl)-2-[3-(dimethylamino)-2,2-difluoro-propoxy]pyrimidin-4-yl]spiro[5,6-dihydrocyclopenta[b]thiophene-4,3′-azetidine]-3-carbonitrile] | < 10 | 1000 to 10000 | 100 to 1000
2 | Cn1c(-c2cc3n(n2)CCCN(c2nc(OC[C@@]45CCCN4C[C@H](F)C5)nc(N4CC5(CCc6sc(N)c(C#N)c65)C4)c2C#N)C3)nc2ccccc21 [Compound 29, 2-amino-1′-[5-cyano-6-[2-(1-methylbenzimidazol-2-yl)-4,6,7,8-tetrahydropyrazolo[1,5-a][1,4]diazepin-5-yl]-2-[[(2R,8S)-2-fluoro-1,2,3,5,6,7-hexahydropyrrolizin-8-yl]methoxy]pyrimidin-4-yl]spiro[5,6-dihydrocyclopenta[b]thiophene-4,3′-azetidine]-3-carbonitrile] | 10 to 100 | 1000 to 10000 | 100 to 1000
3 | Cn1c(-c2nn3c(c2Cl)CN(c2nc(OC[C@@]45CCCN4C[C@H](F)C5)nc(N4CC5(CCc6sc(N)c(C#N)c65)C4)c2C#N)CCC3)nc2ccccc21 [Compound 30] | < 10 | 100 to 1000 | 10 to 100
4 | Cn1c(-c2nn3c(c2Cl)CN(c2nc(OC[C@@]45CCCN4C[C@H](F)C5)nc(N4CC5(CCc6sc(N)c(C#N)c65)C4)c2C#N)CCC3)nc2c(F)cccc21 [Compound 32, 2-amino-1′-[6-[3-chloro-2-(4-fluoro-1-methyl-benzimidazol-2-yl)-4,6,7,8-tetrahydropyrazolo[1,5-a][1,4]diazepin-5-yl]-5-cyano-2-[[(2R,8S)-2-fluoro-1,2,3,5,6,7-hexahydropyrrolizin-8-yl]methoxy]pyrimidin-4-yl]spiro[5,6-dihydrocyclopenta[b]thiophene-4,3′-azetidine]-3-carbonitrile] | < 10 | 100 to 1000 | 10 to 100
5 | N#Cc1c(N2CCCC(C#N)CC2)nc(OC[C@@]23CCCN2C[C@H](F)C3)nc1N1CC2(CCc3sc(N)c(C#N)c32)C1 (stereo partly drawn) [Compound 33, 2-amino-1′-[5-cyano-6-(4-cyanoazepan-1-yl)-2-[[(2R,8S)-2-fluoro-1,2,3,5,6,7-hexahydropyrrolizin-8-yl]methoxy]pyrimidin-4-yl]spiro[5,6-dihydrocyclopenta[b]thiophene-4,3′-azetidine]-3-carbonitrile] | 10 to 100 | 1000 to 10000 | 100 to 1000
6 | N#Cc1c(N2C[C@H]3CC[C@@H](C2)N3)nc(OCC2(CN3CCC(F)(F)CC3)CC2)nc1N1CC2(CCc3sc(N)c(C#N)c32)C1 [Compound 34, 2-amino-1′-[5-cyano-6-(3,8-diazabicyclo[3.2.1]octan-3-yl)-2-[[1-[(4,4-difluoro-1-piperidyl)methyl]cyclopropyl]methoxy]pyrimidin-4-yl]spiro[5,6-dihydrocyclopenta[b]thiophene-4,3′-azetidine]-3-carbonitrile] | < 10 | 10 to 100 | 1 to 10
7 | N#Cc1c(N2C[C@H]3CC[C@@H](C2)N3)nc(OCC2(CN3CCOCC3)CC2)nc1N1CC2(CCCc3sc(N)c(C#N)c32)C1 [Compound 41, 2-amino-1′-[5-cyano-2-[[1-(morpholinomethyl)cyclopropyl]methoxy]-6-[(1R,5S)-3,8-diazabicyclo[3.2.1]octan-3-yl]pyrimidin-4-yl]spiro[6,7-dihydro-5H-benzothiophene-4,3′-azetidine]-3-carbonitrile] | < 10 | 10 to 100 | 1 to 10
8 | N#Cc1c(N2C[C@H]3COC[C@@H](C2)N3)nc(OCC2(CN3CCOCC3)CC2)nc1N1CC2(CCc3sc(N)c(C#N)c32)C1 [Compound 42, 2-amino-1′-[5-cyano-2-[[1-(morpholinomethyl)cyclopropyl]methoxy]-6-(3-oxa-7,9-diazabicyclo[3.3.1]nonan-7-yl)pyrimidin-4-yl]spiro[5,6-dihydrocyclopenta[b]thiophene-4,3′-azetidine]-3-carbonitrile] | < 10 | 100 to 1000 | 100 to 1000
9 | CC1CC2(CN(c3nc(OCC4(CN5CCOCC5)CC4)nc(N4C[C@H]5CC[C@@H](C4)N5)c3C#N)C2)c2c1sc(N)c2C#N (stereo partly drawn) [Compound 45, 2-amino-1-[5-cyano-2-[[1-(morpholinomethyl)cyclopropyl]methoxy]-6-[(1R,5S)-3,8-diazabicyclo[3.2.1]octan-3-yl]pyrimidin-4-yl]-6-methyl-spiro[5,6-dihydrocyclopenta[b]thiophene-4,3′-azetidine]-3-carbonitrile] | < 10 | 10 to 100 | 1 to 10
10 | Cc1nc(-c2nn3c(c2Cl)CN(c2nc(OC[C@@]45CCCN4C[C@H](F)C5)nc(N4CC5(CCc6sc(N)c(C#N)c65)C4)c2C#N)CCC3)no1 [Compound 46, 2-amino-1′-[6-[3-chloro-2-(5-methyl-1,2,4-oxadiazol-3-yl)-4,6,7,8-tetrahydropyrazolo[1,5-a][1,4]diazepin-5-yl]-5-cyano-2-[[(2R,8S)-2-fluoro-1,2,3,5,6,7-hexahydropyrrolizin-8-yl]methoxy]pyrimidin-4-yl]spiro[5,6-dihydrocyclopenta[b]thiophene-4,3′-azetidine]-3-carbonitrile] | < 10 | 100 to 1000 | 10 to 100
11 | CN(C)C1(COc2nc(N3C[C@H]4CC[C@@H](C3)N4)c(C#N)c(N3CC4(CCc5sc(N)c(C#N)c54)C3)n2)CC1 [Compound 47, 2-amino-1′-[5-cyano-6-[(1R,5S)-3,8-diazabicyclo[3.2.1]octan-3-yl]-2-[[1-(dimethylamino)cyclopropyl]methoxy]pyrimidin-4-yl]spiro[5,6-dihydrocyclopenta[b]thiophene-4,3′-azetidine]-3-carbonitrile] | < 10 | 100 to 1000 | 10 to 100
12 | CN(CCOc1nc(N2C[C@H]3CC[C@@H](C2)N3)c(C#N)c(N2CC3(CCc4sc(N)c(C#N)c43)C2)n1)C1CCC1 [Compound 48, 2-amino-1′-[5-cyano-2-[2-[cyclobutyl(methyl)amino]ethoxy]-6-[(1R,5S)-3,8-diazabicyclo[3.2.1]octan-3-yl]pyrimidin-4-yl]spiro[5,6-dihydrocyclopenta[b]thiophene-4,3′-azetidine]-3-carbonitrile] | 10 to 100 | 1000 to 10000 | 100 to 1000
13 | CN(C)CC1(COc2nc(N3C[C@H]4CC[C@@H](C3)N4)c(C#N)c(N3CC4(CCc5sc(N)c(C#N)c54)C3)n2)COC1 [Compound 52, 2-amino-1′-[5-cyano-6-[(1R,5S)-3,8-diazabicyclo[3.2.1]octan-3-yl]-2-[[3-[(dimethylamino)methyl]oxetan-3-yl]methoxy]pyrimidin-4-yl]spiro[5,6-dihydrocyclopenta[b]thiophene-4,3′-azetidine]-3-carbonitrile] | < 10 | 100 to 1000 | 1 to 10
14 | N#Cc1c(N2CCCn3nc(C(=O)C4CC4)c(Cl)c3C2)nc(OC[C@@]23CCCN2C[C@H](F)C3)nc1N1CC2(CCc3sc(N)c(C#N)c32)C1 [Compound 62, 2-amino-1′-[6-[3-chloro-2-(cyclopropanecarbonyl)-4,6,7,8-tetrahydropyrazolo[1,5-a][1,4]diazepin-5-yl]-5-cyano-2-[[(2R,8S)-2-fluoro-1,2,3,5,6,7-hexahydropyrrolizin-8-yl]methoxy]pyrimidin-4-yl]spiro[5,6-dihydrocyclopenta[b]thiophene-4,3′-azetidine]-3-carbonitrile] | < 10 | 10 to 100 | 10 to 100
